Measured values from paper PMC4630399, “Charge-Based Inhibitors of Amylin Fibrillization and Toxicity” (Journal of Diabetes Research, 2015).
Entries after “also recorded” stand apart in the source; their conditions may differ. Positions of bridges follow the written chain, without caps; N, C: chain ends. Residues, ends and D or L forms follow the SMILES beside them.

Columns and labels:
[1] = TEM of aggregates formed by peptides alone; type: physicochemical; conditions: 80 μM peptide, 2 days, 20 mM phosphate pH 7.4, 37°C, no agitation
Description: (§1) Samples containing 80 μM concentrations of WT-amylin and the three analogs were incubated without agitation at a temperature of 37°C in 20 mM phosphate buffer (pH 7.4). For the inhibition reactions, samples contained WT-amylin at an 80 μM concentration, together with 160 μM of Arg-1, Arg-2, or Mem-T analogs. Aliquots from the reactions were removed after 2 days for TEM imaging. The aliquots were blotted onto carbon-coated 400-mesh Maxtaform copper grids (Ted Pella Inc. Redding, CA) for 1–3 min, followed by negative staining with 1% uranyl acetate. TEM images were recorded on an FEI Tecnai G^2 Spirit BioTwin transmission electron microscope equipped with an AMT XR-40 camera.

[2] = test system: WT-amylin cytotoxicity towards MIN6 mouse model of pancreatic β-cells; assay: Protection of MIN6 cells against WT-amylin cytotoxicity (Alamar Blue)
Description: The stock solutions were diluted with FBS-free DMEM and sonicated continuously for 5 min at 75% amplitude before use. FBS was subsequently added to a concentration of 15% (v/v), giving final amylin concentrations of 40, 80, and 160 μM. The final DMSO concentration for all cytotoxicity experiments was 1% (v/v).
Cytotoxicity was measured using the mouse insulinoma 6 (MIN6) cell line model of β-pancreatic cells, which were a gift from Dr. Anil Rustgi (University of Pennsylvania). Cells were seeded at a density of 20,000 per 100 μL in black clear-bottom 96-well plates. The cells were grown in DMEM with 15% FBS, 25 mM glucose, 2 mM L-glutamine, […] sodium pyruvate, 55 μM β-mercaptoethanol, 1000 units/mL penicillin, and 100 μg/mL streptomycin, for 20 h at 37°C in a humidified incubator with 5% CO2. […] The cells were incubated for another 24 h followed by the addition of 10% (v/v) of the redox indicator dye Alamar Blue at the concentration supplied by the manufacturer (Invitrogen). Fluorescence, due to the reduction of Alamar Blue by viable cells, was measured after 6 h, using excitation and emission wavelengths of 544 and 590 nm, respectively. Cell viability was calculated from the ratio of Alamar Blue fluorescence in treated to untreated cells. Uncertainties were calculated as the SEMs of triplicate measurements.

WT-amylin [3] = molecular target: T1, WT-amylin (Homo sapiens, UniProt P10997); assay: TEM of WT-amylin fibrils formed in presence of inhibitor peptides; type: biochemical; set-up: purchased Biopeptide (San Diego, CA); host or cells: solid-phase synthesis; conditions: 80 μM WT-amylin with 160 μM analog, 20 mM sodium phosphate pH 7.4, 1% DMSO, 37°C, 24 h
T1 sequence (P10997 34-70 limits assumed): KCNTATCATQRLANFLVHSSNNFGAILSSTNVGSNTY
Description: as §1
Figure 8 TEM images of fibrils formed from 80 μM WT amylin in the presence or absence of inhibitor peptides. (a) WT amylin alone, (b) with 160 μM Arg-1, (c) with 160 μM Arg-2, and (d) with 160 μM Mem-T. Aliquots were removed for TEM imaging 24 h after the fibrillization reactions were started. Reactions were carried out in 20 mM sodium phosphate (pH 7.4), 1% DMSO (v/v), at 37°C.

WT-amylin [4] = molecular target: T1, WT-amylin; assay: ThT assay, inhibition of WT-amylin fibrillization by analogs added in trans; type: biochemical; set-up: purchased Biopeptide (San Diego, CA); host or cells: solid-phase synthesis; conditions: for reduction of WT-amylin fibril elongation rate: analog 0.001 to 120 μM; for reduction of WT-amylin elongation rate: Arg-1 between 0 and 200 μM
Description: The time course of fibrillization in solution was monitored using 100–200 μL amylin samples, contained in white polystyrene clear bottom 96-well plates (Corning Inc., Corning, NY). Plates were covered with a clear polyester sealing tape (Fisher Scientific, Agawam, MA) to prevent evaporation. Stock solutions of 1.1 mM WT-amylin and inhibitor peptides were prepared in 100% DMSO, which dissolves and disaggregates amylin fibrils, and were stored at −80°C when not in use. […] For experiments using larger 400 μM concentrations of Arg-2 and Mem-T, the solutions were prepared by diluting 100% DMSO stock solutions of 20 mM peptide to a final DMSO concentration of 2% (v/v). Amylin was the last component added to the samples for the kinetic reactions, in order to reduce the dead time for the experiments. The plates were incubated at 25°C without agitation. Fluorescence intensity was recorded at 2 min intervals with excitation at 440 nm and emission at 490 nm on a Fluoroskan Ascent 2.5 fluorescence plate reader. Fibrillization reactions for the peptides alone were performed in triplicate and for analog-peptide inhibition of WT-amylin in duplicate, to estimate experimental uncertainties in kinetic parameters.

[5] = ThT assay of fibrillization kinetics, peptides alone; type: physicochemical
Description: The time course of fibrillization in solution was monitored using 100–200 μL amylin samples, contained in white polystyrene clear bottom 96-well plates (Corning Inc., Corning, NY). Plates were covered with a clear polyester sealing tape (Fisher Scientific, Agawam, MA) to prevent evaporation. Stock solutions of 1.1 mM WT-amylin and inhibitor peptides were prepared in 100% DMSO, which dissolves and disaggregates amylin fibrils, and were stored at −80°C when not in use. Starting from the 1.1 mM stock solutions in 100% DMSO, samples for fibrillization reactions were prepared to contain 20 μM amylin and 10 μM ultrapure ThT, in 20 mM sodium phosphate buffer, pH 7.4, and a final DMSO concentration of 2% (v/v). For experiments using larger 400 μM concentrations of Arg-2 and Mem-T, the solutions were prepared by diluting 100% DMSO stock solutions of 20 mM peptide to a final DMSO concentration of 2% (v/v). Amylin was the last component added to the samples for the kinetic reactions, in order to reduce the dead time for the experiments. The plates were incubated at 25°C without agitation. Fluorescence intensity was recorded at 2 min intervals with excitation at 440 nm and emission at 490 nm on a Fluoroskan Ascent 2.5 fluorescence plate reader. Fibrillization reactions for the peptides alone were performed in triplicate and for analog-peptide inhibition of WT-amylin in duplicate, to estimate experimental uncertainties in kinetic parameters.

[6] = 20 μM peptide, 150 mM NaCl, pH 7.4, 25°C

CC[C@H](C)[C@H](NC(=O)[C@H](C)NC(=O)CNC(=O)[C@H](Cc1ccccc1)NC(=O)[C@H](CC(N)=O)NC(=O)[C@H](CC(N)=O)NC(=O)[C@H](CO)NC(=O)[C@H](CO)NC(=O)[C@H](Cc1c[nH]cn1)NC(=O)[C@H](CCCNC(=N)N)NC(=O)[C@H](CCCNC(=N)N)NC(=O)[C@H](CCCNC(=N)N)NC(=O)[C@H](CCCNC(=N)N)NC(=O)[C@H](C)NC(=O)[C@H](CC(C)C)NC(=O)[C@H](CCCNC(=N)N)NC(=O)[C@H](CCC(N)=O)NC(=O)[C@@H](NC(=O)[C@H](C)NC(=O)[C@@H]1CSSC[C@H](NC(=O)[C@@H](N)CCCCN)C(=O)N[C@@H](CC(N)=O)C(=O)N[C@@H]([C@@H](C)O)C(=O)N[C@@H](C)C(=O)N[C@@H]([C@@H](C)O)C(=O)N1)[C@@H](C)O)C(=O)N[C@@H](CC(C)C)C(=O)N[C@@H](CO)C(=O)N[C@@H](CO)C(=O)N[C@H](C(=O)N[C@@H](CC(N)=O)C(=O)N[C@H](C(=O)NCC(=O)N[C@@H](CO)C(=O)N[C@@H](CC(N)=O)C(=O)N[C@H](C(=O)N[C@@H](Cc1ccc(O)cc1)C(N)=O)[C@@H](C)O)C(C)C)[C@@H](C)O [Arg-1] (H-KCNTATCATQRLARRRRHSSNNFGAILSSTNVGSNTY-NH2; disulfide 2-7 (inferred); N-terminus assumed)
aggregate morphology by TEM [1]: formed much fewer fibrils; also recorded: formed a larger proportion of short fibrils than WT-amylin; also recorded: fewer fibrils with shorter lengths
protection against WT-amylin cytotoxicity (overall) ([2]; MIN6 cells, 80 μM WT-amylin, up to 2 : 1 inhibitor : WT-amylin): protects against WT-amylin cytotoxicity
IC50 ([2]; mouse, 24 h): ~50 µM
TEM of WT-amylin fibrils formed with inhibitor (WT-amylin [3]): somewhat fewer fibrils and a greater amount of short fibrils
effect on WT-amylin fibrillization lag time (WT-amylin [4]; 20 μM WT-amylin, 150 mM NaCl): no effects on the lag times within experimental uncertainty
effect on steady-state fluorescence plateau (WT-amylin [4]; 20 μM WT-amylin, 150 mM NaCl): reduction in the steady-state fluorescence plateaus; also recorded: only observed to decrease with the Arg-1 analog
reduction of WT-amylin fibril elongation rate (WT-amylin [4]; 20 μM WT-amylin, 150 mM NaCl): 8–10 fold
reduction of WT-amylin elongation rate (WT-amylin [4]; 20 μM WT-amylin, 150 mM NaCl): 7 fold
reduction of WT-amylin elongation rate (WT-amylin [4]; 20 μM WT-amylin, absence of salt): 4 fold
effect on WT-amylin lag times, elongation rates and fluorescence plateaus (WT-amylin [4]; 80 μM WT-amylin, increasing Arg-1, 150 mM NaCl): increases in lag times with increasing Arg-1 concentration as well as decreases in elongation rates and steady-state fluorescence plateaus
increase of lag time compared to WT-amylin ([5]; 20 μM peptide, 150 mM NaCl): about 2 fold
reduction of elongation rate compared to WT-amylin ([5]; 20 μM peptide, 150 mM NaCl): about 30%
fibrillization detected (ThT) [5, 6]: detect fibrillization
fibrillization lag time ([5]; 20 μM peptide, 150 mM NaCl, 20 mM sodium phosphate pH 7.4, 10 μM ThT, 2% DMSO, 25°C, no agitation, fluorescence ex 440/em 490 nm, triplicate): 210 min
fibril elongation rate ([5]; 20 μM peptide, 150 mM NaCl, 20 mM sodium phosphate pH 7.4, 10 μM ThT, 2% DMSO, 25°C, no agitation, triplicate): 0.0068 min⁻¹

CC(C)C[C@H](NC(=O)[C@H](CCCNC(=N)N)NC(=O)[C@H](CCC(N)=O)NC(=O)[C@@H](NC(=O)[C@H](C)NC(=O)[C@@H]1CSSC[C@H](NC(=O)[C@@H](N)CCCCN)C(=O)N[C@@H](CC(N)=O)C(=O)N[C@@H]([C@@H](C)O)C(=O)N[C@@H](C)C(=O)N[C@@H]([C@@H](C)O)C(=O)N1)[C@@H](C)O)C(=O)N[C@@H](C)C(=O)N[C@@H](CC(N)=O)C(=O)N[C@@H](Cc1ccccc1)C(=O)N[C@@H](CC(C)C)C(=O)N[C@H](C(=O)N[C@@H](Cc1c[nH]cn1)C(=O)N[C@@H](CO)C(=O)N[C@@H](CO)C(=O)N[C@@H](CC(N)=O)C(=O)N[C@@H](CC(N)=O)C(=O)N[C@@H](CCCNC(=N)N)C(=O)N[C@@H](CCCNC(=N)N)C(=O)N[C@@H](CCCNC(=N)N)C(=O)N[C@@H](CCCNC(=N)N)C(=O)N[C@@H](CC(C)C)C(=O)N[C@@H](CO)C(=O)N[C@@H](CO)C(=O)N[C@H](C(=O)N[C@@H](CC(N)=O)C(=O)N[C@H](C(=O)NCC(=O)N[C@@H](CO)C(=O)N[C@@H](CC(N)=O)C(=O)N[C@H](C(=O)N[C@@H](Cc1ccc(O)cc1)C(N)=O)[C@@H](C)O)C(C)C)[C@@H](C)O)C(C)C [Arg-2] (H-KCNTATCATQRLANFLVHSSNNRRRRLSSTNVGSNTY-NH2; disulfide 2-7 (inferred); N-terminus assumed)
aggregate morphology by TEM [1]: only detected amorphous aggregates with nonfibrillar morphologies; also recorded: few if any fibrils
protection against WT-amylin cytotoxicity ([2]; 160 μM analog : 80 μM WT-amylin (2 : 1)): protects against cytotoxicity
TEM of WT-amylin fibrils formed with inhibitor (WT-amylin [3]): somewhat fewer fibrils and a greater amount of short fibrils
effect on WT-amylin fibrillization lag time (WT-amylin [4]; 20 μM WT-amylin, 150 mM NaCl): increased with increasing concentrations
reduction of WT-amylin fibril elongation rate (WT-amylin [4]; 20 μM WT-amylin, 150 mM NaCl): 8–10 fold
salt dependence of inhibition of elongation rate (WT-amylin [4]; 20 μM WT-amylin, varying NaCl): A very similar effect is seen; also recorded: more effective at physiological salt concentration or higher than in the absence of salt
fibrillization detected (ThT) [5, 6]: failed to fibrillize
fibrillization detected (ThT) ([5]; 400 μM peptide, pH 7.4, 2% DMSO, 25°C): still failed to fibrillize
fibrillization of peptide on its own (overall) ([5]; ThT, all conditions tested): did not form fibrils under any of the conditions tested; also recorded: did not form fibrils even at high concentrations of the peptide and salt
